In patent US7598245B2 (Vertex Pharmaceuticals Incorporated, priority 2003, dated 2009):

Key:
Type in all cases: biochemical
human Src kinase = target: T1, human Src kinase (Homo sapiens, UniProt P12931); test: Src inhibition assay B: spectrophotometric (uv-vis) coupled enzyme assay; details: 100 μM ATP
T1 construct: 25 nM of recombinant human Src kinase
Description: The compounds are evaluated as inhibitors of human Src kinase using either a radioactivity-based assay or spectrophotometric assay.
Src Inhibition Assay B: Spectrophotometric Assay
The ADP produced from ATP by the human recombinant Src kinase-catalyzed phosphorylation of poly Glu-Tyr substrate is quantified using a coupled enzyme assay [Fox et al. Protein Sci. 1998, 7, 2249]. In this assay one molecule of NADH is oxidised to NAD for every molecule of ADP produced in the kinase reaction. The disappearance of NADH is conveniently followed at 340 nm.
The following are the final concentrations of the assay components: 0.025 M HEPES (pH 7.6), 10 mM MgCl2, 2 mM DTT, 0.25 mg/ml poly Glu-Tyr, and 25 nM of recombinant human Src kinase. Final concentrations of the components of the coupled enzyme system are 2.5 mM phosphoenolpyruvate, 200 μM NADH, 30 μg/ml pyruvate kinase and 10 μg/ml lactate dehydrogenase.
In a typical assay, all the reaction components with the exception of ATP are pre-mixed and aliquoted into assay plate wells. Inhibitors dissolved in DMSO are added to the wells to give a final DMSO concentration of 2.5%. The assay plate is incubated at 30° C. for 10 min before initiating the reaction with 100 μM ATP. The absorbance change at 340 nm with time, the rate of the reaction, is monitored on a molecular devices plate reader. The data of rate as a function of the inhibitor concentration is fitted to competitive inhibition kinetics model to get the Ki for the compound.

PDK-1 = target: T2, PDK-1 (Homo sapiens, UniProt O15530); test: PDK-1 inhibition, radioactive-phosphate incorporation assay; details: 40 μM ATP
T2 sequence (O15530 1-556): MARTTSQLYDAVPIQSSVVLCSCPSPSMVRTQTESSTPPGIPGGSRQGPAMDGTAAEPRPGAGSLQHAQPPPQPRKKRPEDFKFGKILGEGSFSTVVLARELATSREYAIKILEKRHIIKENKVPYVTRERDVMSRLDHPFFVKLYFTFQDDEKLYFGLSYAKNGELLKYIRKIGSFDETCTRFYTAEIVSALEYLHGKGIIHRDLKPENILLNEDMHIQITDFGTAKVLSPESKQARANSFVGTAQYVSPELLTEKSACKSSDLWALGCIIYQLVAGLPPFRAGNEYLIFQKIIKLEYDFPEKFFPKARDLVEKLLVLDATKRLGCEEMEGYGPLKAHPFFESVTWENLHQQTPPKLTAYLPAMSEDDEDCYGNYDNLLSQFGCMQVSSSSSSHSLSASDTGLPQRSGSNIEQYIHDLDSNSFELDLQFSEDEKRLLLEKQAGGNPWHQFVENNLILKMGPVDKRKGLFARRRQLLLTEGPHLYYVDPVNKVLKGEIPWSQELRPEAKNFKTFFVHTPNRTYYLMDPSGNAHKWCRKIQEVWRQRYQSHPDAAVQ
Description: Compounds were screened for their ability to inhibit PDK-1 using a radioactive-phosphate incorporation assay (Pitt and Lee, J. Biomol. Screen., (1996) 1, 47). Assays were carried out in a mixture of 100 mM HEPES (pH 7.5), 10 mM MgCl2, 25 mM NaCl, 2 mM DTT. Final substrate concentrations in the assay were 40 μM ATP (Sigma Chemicals) and 65 μM peptide (PDKtide, Upstate, Lake Placid, N.Y.). Assays were carried out at 30° C. and 25 nM PDK-1 in the presence of ˜27.5 nCi/μL of [γ-^32P]ATP (Amersham Pharmacia Biotech, Amersham, UK). An assay stock buffer solution was prepared containing all of the reagents listed above, with the exception of ATP, and the test compound of interest. 15 μl of the stock solution was placed in a 96 well plate followed by addition of 1 μl of 0.5 mM DMSO stock containing the test compound (final compound concentration 25 μM, final DMSO concentration […]). The plate was preincubated for about 10 minutes at 30° C. and the reaction initiated by addition of 4 μl ATP (final concentration 40 μM).
The reaction was stopped after 10 minutes by the addition of 100 μL 100 mM phosphoric acid, 0.01% Tween-20. A phosphocellulose 96 well plate (Millipore, Cat no. MAPHNOB50) was pretreated with 100 μL 100 mM phosphoric acid, 0.01% Tween-20 prior to the addition of the reaction mixture (100 μL). The spots were left to soak for at least 5 minutes, prior to wash steps (4×200 μL 100 mM phosphoric acid, 0.01% Tween-20). After drying, 20 μL Optiphase ‘SuperMix’ liquid scintillation cocktail (Perkin Elmer) was added to the well prior to scintillation counting (1450 Microbeta Liquid Scintillation Counter, Wallac).

Aurora-2 = target: T3, Aurora-2 (Homo sapiens, UniProt O14965); test: Inhibition of AUR-2, coupled enzyme assay
T3 construct: addition of 10 μL of Aurora-2 stock solution to give a final concentration of 70 nM
T3 sequence (O14965 1-403): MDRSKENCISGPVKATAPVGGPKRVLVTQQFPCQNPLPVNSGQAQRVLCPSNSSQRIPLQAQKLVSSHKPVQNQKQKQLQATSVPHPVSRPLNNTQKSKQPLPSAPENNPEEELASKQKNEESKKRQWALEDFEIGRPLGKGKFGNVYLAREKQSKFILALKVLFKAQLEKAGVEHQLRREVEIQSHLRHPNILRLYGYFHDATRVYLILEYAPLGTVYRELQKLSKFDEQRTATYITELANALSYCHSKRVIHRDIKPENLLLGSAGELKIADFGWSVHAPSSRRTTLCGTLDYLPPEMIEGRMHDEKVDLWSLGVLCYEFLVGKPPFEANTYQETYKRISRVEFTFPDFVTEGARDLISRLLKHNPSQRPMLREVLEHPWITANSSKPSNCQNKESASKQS
Description: Compounds are screened in the following manner for their ability to inhibit Aurora-2 using a standard coupled enzyme assay (Fox et al (1998) Protein Sci 7, 2249). To an assay stock buffer solution containing 0.1M HEPES 7.5, 10 mM MgCl2, 1 mM DTT, 25 mM NaCl, 2.5 mM phosphoenolpyruvate, […], 30 mg/ml pyruvate kinase, 10 mg/ml lactate dehydrogenase, 40 mM ATP, and 800 μM peptide (LRRASLG, American Peptide, Sunnyvale, Calif.) is added a DMSO solution of a compound of the present invention to a final concentration of 30 μM. The resulting mixture is incubated at 30° C. for 10 min. The reaction was initiated by the addition of 10 μL of Aurora-2 stock solution to give a final concentration of 70 nM in the assay. The rates of reaction are obtained by monitoring absorbance at 340 nm over a 5 minute read time at 30° C. using a BioRad Ultramark plate reader (Hercules, Calif.). The Ki values are determined from the rate data as a function of inhibitor concentration.

JAK-3 = target: T4, JAK-3 (Homo sapiens, UniProt P52333); test: JAK3 inhibition assay (ELISA, Poly (Glu, Ala, Tyr) coated plates); details: 2 μM ATP
T4 sequence (P52333 1-1124): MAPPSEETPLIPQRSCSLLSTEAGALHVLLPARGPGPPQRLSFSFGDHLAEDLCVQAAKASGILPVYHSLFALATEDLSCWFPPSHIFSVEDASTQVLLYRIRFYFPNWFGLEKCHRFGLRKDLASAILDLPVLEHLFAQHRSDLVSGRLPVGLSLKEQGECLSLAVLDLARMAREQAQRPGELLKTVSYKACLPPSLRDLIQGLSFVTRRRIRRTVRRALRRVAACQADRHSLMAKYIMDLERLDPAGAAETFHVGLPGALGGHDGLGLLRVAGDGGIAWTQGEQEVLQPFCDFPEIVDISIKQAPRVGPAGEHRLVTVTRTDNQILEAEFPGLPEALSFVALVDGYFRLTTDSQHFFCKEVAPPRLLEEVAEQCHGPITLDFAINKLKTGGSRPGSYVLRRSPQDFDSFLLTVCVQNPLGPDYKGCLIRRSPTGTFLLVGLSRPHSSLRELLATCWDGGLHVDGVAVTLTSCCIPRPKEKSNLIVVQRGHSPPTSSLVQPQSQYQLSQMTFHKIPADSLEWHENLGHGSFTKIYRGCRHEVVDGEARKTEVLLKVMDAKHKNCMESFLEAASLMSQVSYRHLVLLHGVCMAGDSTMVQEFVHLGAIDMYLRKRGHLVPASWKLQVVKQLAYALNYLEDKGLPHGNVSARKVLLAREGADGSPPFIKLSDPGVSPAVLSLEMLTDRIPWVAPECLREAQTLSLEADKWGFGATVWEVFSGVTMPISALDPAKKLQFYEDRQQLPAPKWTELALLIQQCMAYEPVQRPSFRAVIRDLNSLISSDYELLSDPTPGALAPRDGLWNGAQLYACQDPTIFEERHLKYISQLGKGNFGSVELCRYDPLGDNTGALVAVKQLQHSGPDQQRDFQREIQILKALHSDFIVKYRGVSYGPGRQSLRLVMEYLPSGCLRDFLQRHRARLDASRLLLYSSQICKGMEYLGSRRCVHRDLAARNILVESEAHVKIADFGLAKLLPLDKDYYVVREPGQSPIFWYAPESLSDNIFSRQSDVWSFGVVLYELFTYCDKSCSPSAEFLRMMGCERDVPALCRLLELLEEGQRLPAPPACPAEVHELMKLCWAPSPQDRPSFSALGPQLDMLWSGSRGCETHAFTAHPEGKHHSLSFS
Description: Compound inhibition of JAK was assayed by the method described by G. R. Brown, et al, Bioorg. Med. Chem. Lett. 2000, vol. 10, pp 575-579 in the following manner. Into Maxisorb plates, previously coated at 4° C. with Poly (Glu, Ala, Tyr) 6:3:1 then washed with phosphate buffered saline 0.05% and Tween-(PBST), was added 2 μM ATP, 5 mM MgCl2, and a solution of compound in DMSO. The reaction was started with JAK enzyme and the plates incubated for 60 minutes at 30° C. The plates were then washed with PBST, 100 μL HRP-Conjugated 4G10 antibody was added, and the plate incubated for 90 minutes at 30° C. The plate was again washed with PBST, 100 μL TMB solution is added, and the plates were incubated for another 30 minutes at 30° C. Sulfuric acid (100 μL of 1M) was added to stop the reaction and the plate is read at 450 nm to obtain the optical densities for analysis to determine Ki values.

T1 sequence (P12931 whole entry): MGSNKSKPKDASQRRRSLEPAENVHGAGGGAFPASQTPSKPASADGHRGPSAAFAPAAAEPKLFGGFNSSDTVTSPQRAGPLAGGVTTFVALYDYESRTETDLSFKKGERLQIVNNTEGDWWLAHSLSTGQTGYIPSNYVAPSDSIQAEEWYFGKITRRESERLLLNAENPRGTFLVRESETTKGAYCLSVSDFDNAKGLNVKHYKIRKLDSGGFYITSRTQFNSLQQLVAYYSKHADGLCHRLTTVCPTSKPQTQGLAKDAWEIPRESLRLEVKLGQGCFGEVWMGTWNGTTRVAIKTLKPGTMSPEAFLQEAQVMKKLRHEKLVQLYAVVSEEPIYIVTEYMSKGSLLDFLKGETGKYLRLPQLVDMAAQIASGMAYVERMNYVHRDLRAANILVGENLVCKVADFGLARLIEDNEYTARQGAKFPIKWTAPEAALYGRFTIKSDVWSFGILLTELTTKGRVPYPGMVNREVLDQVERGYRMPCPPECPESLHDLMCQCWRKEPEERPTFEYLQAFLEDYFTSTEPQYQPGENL

Ki (human Src kinase)	Ki (PDK-1)	Ki (Aurora-2)	Ki (JAK-3)	Structure (SMILES)
< 500 nM	< 1000 nM	100 to 1000 nM	–	c1ccc(Nc2ncn(-c3cc(N[C@H]4CCCNC4)ncn3)n2)cc1 [Compound I-103, [6-(3-Phenylamino-[1,2,4]triazol-1-yl)-pyrimidin-4-yl]-piperidin-3-yl-amine]
–	< 1000 nM	–	–	NS(=O)(=O)c1ccc(Nc2ncn(-c3ccnc(N[C@H]4CCCNC4)c3)n2)cc1 [Compound I-104, 3-(S)-{4-[3-(4-Sulfamoyl-phenylamino)-[1,2,4]triazol-1-yl]-pyridin-2-ylamino}-piperidine]
> 1000 nM	–	–	–	CCCN(CC1CC1)c1cc(-n2cnc(Nc3ccccc3)n2)ccn1 [Compound I-125, cyclopropylmethyl-[4-(3-phenylamino-[1,2,4]triazol-1-yl)-pyridin-2-yl]-propyl-amine]
> 1000 nM	–	–	–	CC1CCCCN1c1cc(-n2cnc(Nc3ccccc3)n2)ccn1 (centres unmarked) [Compound I-126, [1-(2-methyl-3,4,5,6-tetrahydro-2H-[1,2′]bipyridinyl-4′-yl)-1H-[1,2,4]triazol-3-yl]-phenyl-amine]
> 1000 nM	–	–	> 1000 nM	CN(c1cc(-n2cnc(Nc3ccccc3)n2)ccn1)C1CCCCC1 [Compound I-133]
